In this assay the test system is Dottersackgefäßsystem von Hühnerembryonen. As to the kind of experiment: animal or person. The following applies: for Hemmung: time point not stated. The source says:
Cyproheptadin (Peritol®) wird aufgrund seiner zentralen Wirkung als Appetitsstimulanz in der Klinik verwendet. Als Nebenwirkungen waren bisher im wesentlichen sedierende Effekte bekannt. […] Zur Wirkungsanalyse wurde die Gefäßentwicklung der Dottersackmembran von befruchteten Hühnereiern benutzt. Das Modell hat den Vorteil, daß die Entwicklung dieses primären Gefäßsystems der Hühnerembryonen Kapillaren erzeugt, die eine große Ähnlichkeit mit Tumorgefäßen haben. Diese Kapillaren sind stärker fenestriert und sind anatomisch den Tumorvaskularitäten ähnlich.
Bei 30 ex ovo bebrüteten Hühnereiern werden jeweils auf zwei Bereiche des Dottersackgefäßsystems 1,5 µl eines 3%igen Traganth-Gels, in dem Cyproheptadin in der zu untersuchenden Konzentration eingebracht wurde, appliziert. Bei weiterer Bebrütung in einem Sterilinkubator bei 37°C und 85% Luftfeuchtigkeit entwickeln sich die pre- bzw. postkapillären Gefäßstrukturen der Dottersackvaskularitäten, die 9 h und 24 h post applicationem semiquantitativ bewertet werden.
Ebenfalls nach 9 h und 24 h werden die Applikationsstellen bewertet.

For `CN1CCC(=C2c3ccccc3C=Cc3ccccc32)CC1` [Cyproheptadin], for the setting “24 h values compared with 9 h values”, the “Wirkung 24 h nach Applikation” value is “in leicht abgeschwächter Form noch vorhanden”. Besides, the Emax (Gallus gallus, read-out: maximale Wirkungsstärke) is 76%. Besides, where the note is “effective concentration range in words”, the “Hemmung der Dottersackangiogenese, wirksame Konzentrationen” value is “in nanomolaren Konzentrationen”. Besides, the Hemmung is on record as 20,3% (single substance at its IC 25 concentration), 37,9% (single substance at its IC 50 concentration), 65,8% (single substance at its IC 75 concentration) and 76,6% (single substance at its IC 100 concentration). Also, the “Angiogenese bei sehr hohen Konzentrationen” value (very high concentrations) is recorded as “totale Verhinderung einer Angiogenese”.

The record behind these values is patent publication EP1478365B1 (Nowak, Götz, priority 2002, dated 2003).
